From ChEMBL document CHEMBL1201862, “PubChem BioAssay data set” (2004)
Active and inactive are the calls of the source.

What was measured:
Vero = assay: cells; type: functional; details: Chlorocebus sabaeus
H9c2 = assay: cells; type: functional, cell-based; details: Rattus norvegicus, H9c2, Myocardium;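 note: confirmatory concentration-response retest of ultra-high-throughput screening hits for modulation of myocardial damage; cell death induced by hydrogen peroxide oxidative stress; compound pretreatment for 60 min then peroxide exposure for 2 h; potency is for protecting the cells against peroxide damage rather than for killing them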
Large T antigen = Large T antigen (Simian virus 40, UniProt P03070); type: functional, Betapolyomavirus macacae;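 note: Confirmatory-stage PubChem screen for compounds that inhibit SV40 T antigen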
Sequence of Large T antigen (P03070 whole entry): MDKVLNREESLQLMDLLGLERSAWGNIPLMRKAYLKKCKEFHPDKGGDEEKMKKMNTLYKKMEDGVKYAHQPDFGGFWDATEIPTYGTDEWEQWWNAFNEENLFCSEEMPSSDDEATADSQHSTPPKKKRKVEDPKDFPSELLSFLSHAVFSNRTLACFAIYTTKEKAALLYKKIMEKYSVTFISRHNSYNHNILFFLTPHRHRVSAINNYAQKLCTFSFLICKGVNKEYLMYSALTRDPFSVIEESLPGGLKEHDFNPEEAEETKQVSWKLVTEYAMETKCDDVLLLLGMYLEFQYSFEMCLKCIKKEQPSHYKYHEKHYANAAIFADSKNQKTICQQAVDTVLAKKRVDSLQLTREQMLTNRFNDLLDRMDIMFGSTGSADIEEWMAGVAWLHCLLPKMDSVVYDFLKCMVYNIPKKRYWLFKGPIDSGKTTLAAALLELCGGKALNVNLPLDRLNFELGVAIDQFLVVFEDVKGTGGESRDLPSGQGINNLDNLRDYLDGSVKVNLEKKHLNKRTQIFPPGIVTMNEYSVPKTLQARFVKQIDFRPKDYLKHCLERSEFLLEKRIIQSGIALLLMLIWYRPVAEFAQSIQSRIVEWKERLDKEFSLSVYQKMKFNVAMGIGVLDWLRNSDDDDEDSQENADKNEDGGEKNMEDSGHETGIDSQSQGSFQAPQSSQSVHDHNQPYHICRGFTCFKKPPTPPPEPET

[1] = target: FAD-linked sulfhydryl oxidase ALR (Homo sapiens, UniProt P55789); assay: inhibitors of human ALR sulfhydryl oxidase, dose response, biochemical, H2O2 detection, luminescence, cherry-pick (AID 493248)
Sequence of FAD-linked sulfhydryl oxidase ALR (P55789 whole entry): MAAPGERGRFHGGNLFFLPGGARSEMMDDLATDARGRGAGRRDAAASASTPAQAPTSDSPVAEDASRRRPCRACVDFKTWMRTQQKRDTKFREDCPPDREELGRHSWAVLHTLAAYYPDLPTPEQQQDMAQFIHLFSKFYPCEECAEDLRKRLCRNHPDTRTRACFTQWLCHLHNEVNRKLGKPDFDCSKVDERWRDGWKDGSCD

Cytochrome P450 2C9 = Cytochrome P450 2C9 (Homo sapiens, UniProt P11712)
Sequence of Cytochrome P450 2C9 (P11712 whole entry): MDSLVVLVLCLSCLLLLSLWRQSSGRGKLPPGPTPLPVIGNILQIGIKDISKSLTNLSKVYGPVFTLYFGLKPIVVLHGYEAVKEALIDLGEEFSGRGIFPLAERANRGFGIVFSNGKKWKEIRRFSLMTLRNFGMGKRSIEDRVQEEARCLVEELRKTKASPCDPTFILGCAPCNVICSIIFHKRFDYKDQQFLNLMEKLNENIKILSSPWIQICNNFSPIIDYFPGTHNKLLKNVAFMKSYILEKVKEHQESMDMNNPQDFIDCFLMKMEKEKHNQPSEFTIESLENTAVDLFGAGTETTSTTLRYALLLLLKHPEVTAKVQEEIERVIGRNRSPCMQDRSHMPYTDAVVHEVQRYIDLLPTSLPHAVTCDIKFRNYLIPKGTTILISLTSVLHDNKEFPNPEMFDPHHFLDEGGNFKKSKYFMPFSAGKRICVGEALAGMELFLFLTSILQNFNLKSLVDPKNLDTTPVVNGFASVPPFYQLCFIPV

[2] = target: T1, Polyadenylate-binding protein 1 (Homo sapiens, UniProt P11940); assay: PABP1 MLLE–PAM2 interaction inhibitors, dose response, miRNA deadenylation inhibitor project, biochemical, fluorescence polarization, Cy5-PAM2 peptide, secondary (AID 602260); type: functional; details: read-out: IC50_Mean
T1 sequence (P11940 whole entry): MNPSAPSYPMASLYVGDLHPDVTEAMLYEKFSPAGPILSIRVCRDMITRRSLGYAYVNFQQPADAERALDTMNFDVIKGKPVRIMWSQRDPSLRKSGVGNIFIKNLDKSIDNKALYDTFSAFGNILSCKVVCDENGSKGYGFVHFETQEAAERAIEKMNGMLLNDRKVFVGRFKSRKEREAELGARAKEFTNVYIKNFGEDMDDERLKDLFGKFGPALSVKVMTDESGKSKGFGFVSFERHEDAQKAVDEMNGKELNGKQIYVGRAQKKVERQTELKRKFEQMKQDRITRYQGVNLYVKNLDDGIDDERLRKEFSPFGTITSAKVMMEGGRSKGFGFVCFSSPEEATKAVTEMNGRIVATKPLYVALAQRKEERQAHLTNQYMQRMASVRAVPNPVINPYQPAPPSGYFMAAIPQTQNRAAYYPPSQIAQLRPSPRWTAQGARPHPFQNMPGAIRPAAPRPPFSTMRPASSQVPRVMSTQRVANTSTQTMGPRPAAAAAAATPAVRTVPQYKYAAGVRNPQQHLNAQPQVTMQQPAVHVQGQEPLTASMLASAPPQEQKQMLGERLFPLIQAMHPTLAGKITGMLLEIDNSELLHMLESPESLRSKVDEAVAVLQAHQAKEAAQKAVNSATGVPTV

[3] = target: T1, Polyadenylate-binding protein 1; assay: PABP1 MLLE–PAM2 binding inhibitor potency, dose response, biochemical, fluorescence polarization, FITC-PAM2 peptide (AID 602259); type: functional; details: read-out: IC50_Mean
[4] = target: T2, Rac GTPase-activating protein 1 (Homo sapiens, UniProt Q9H0H5); assay: MgcRacGAP GTPase-activating activity inhibitors, confirmation, biochemical, ADP Hunter fluorescence, primary and confirmatory (AID 624330); type: functional
T2 sequence (Q9H0H5 whole entry): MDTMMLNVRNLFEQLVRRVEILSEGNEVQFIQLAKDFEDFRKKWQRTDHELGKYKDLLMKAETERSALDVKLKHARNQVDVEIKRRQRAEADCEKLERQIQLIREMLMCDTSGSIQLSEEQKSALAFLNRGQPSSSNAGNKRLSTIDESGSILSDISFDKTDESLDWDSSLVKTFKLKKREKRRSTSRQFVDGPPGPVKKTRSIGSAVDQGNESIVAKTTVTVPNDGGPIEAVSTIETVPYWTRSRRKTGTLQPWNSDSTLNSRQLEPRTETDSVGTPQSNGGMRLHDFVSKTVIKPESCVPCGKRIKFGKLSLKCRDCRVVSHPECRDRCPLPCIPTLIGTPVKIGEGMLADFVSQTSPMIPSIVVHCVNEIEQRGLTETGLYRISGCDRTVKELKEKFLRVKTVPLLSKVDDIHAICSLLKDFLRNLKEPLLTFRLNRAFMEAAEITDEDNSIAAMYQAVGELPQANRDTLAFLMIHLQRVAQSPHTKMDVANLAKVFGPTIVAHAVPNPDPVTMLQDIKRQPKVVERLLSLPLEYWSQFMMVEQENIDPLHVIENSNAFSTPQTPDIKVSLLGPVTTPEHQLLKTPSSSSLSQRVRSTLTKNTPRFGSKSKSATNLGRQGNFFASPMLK

[5] = growth suppression of PTEN-null colon cells, dose response, cell-based, HCT116 PTEN knockout (AID 1047); type: functional;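 note: HCT116 colon tumor cells with PTEN knocked out; cells exposed to compound for 60 hours before readout; potency for loss of cell viability measured by luminescence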
[6] = growth suppression of beta-catenin-knockout colon cells, dose response, cell-based, HCT116, human colon tumor (AID 1045); type: functional;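 note: HCT116 colon tumor cells with beta catenin knocked out; cells exposed to compound for 60 hours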
[7] = target: T3, Ubiquitin-conjugating enzyme E2 N (Homo sapiens, UniProt P61088); type: functional;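 note: Dose-response confirmation in a TR-FRET assay detecting UBC13-driven polyubiquitin chain formation, inhibition measured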
T3 sequence (P61088 whole entry): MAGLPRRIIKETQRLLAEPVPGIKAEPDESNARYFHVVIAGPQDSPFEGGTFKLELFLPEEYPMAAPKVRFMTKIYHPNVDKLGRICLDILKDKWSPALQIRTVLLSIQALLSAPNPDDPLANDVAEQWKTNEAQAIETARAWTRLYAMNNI

[8] = target: T4, Heat shock factor protein 1 (Mus musculus, UniProt P38532); assay: HSF1 potentiators in luciferase reporter cells, confirmation, cell-based, NIH3T3, luminescence, dose retest (AID 435004); type: functional;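 note: stress induced by proteasome inhibitor MG132 added 30 min after compound; luciferase reporter driven by HSF1 response element in NIH3T3 cells; actives raise luminescence as potentiators of the MG132 stress response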
T4 sequence (P38532 whole entry): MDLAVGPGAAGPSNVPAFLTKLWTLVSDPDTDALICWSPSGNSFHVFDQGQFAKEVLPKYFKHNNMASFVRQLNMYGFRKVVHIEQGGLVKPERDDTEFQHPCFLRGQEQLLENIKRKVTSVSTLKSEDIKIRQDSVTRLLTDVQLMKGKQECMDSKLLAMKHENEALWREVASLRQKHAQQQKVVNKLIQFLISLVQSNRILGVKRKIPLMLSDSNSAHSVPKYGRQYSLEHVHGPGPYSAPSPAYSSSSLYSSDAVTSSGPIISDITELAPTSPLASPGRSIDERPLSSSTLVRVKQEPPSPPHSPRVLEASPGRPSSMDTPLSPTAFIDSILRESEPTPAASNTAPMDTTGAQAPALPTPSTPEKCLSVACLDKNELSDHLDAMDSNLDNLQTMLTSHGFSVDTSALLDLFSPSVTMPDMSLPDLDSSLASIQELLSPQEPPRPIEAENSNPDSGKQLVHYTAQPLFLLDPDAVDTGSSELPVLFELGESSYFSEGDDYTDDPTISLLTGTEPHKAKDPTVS

INS1 = assay: beta cell apoptosis inhibitors, cytokine rescue, dose response, luminescence, retest (AID 449756); type: functional, cell-based; details: Rattus norvegicus;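 note: cell death triggered by IL-1 beta plus TNF-alpha plus IFN-gamma mixture; protective hits raise ATP signal compared with cytokine alone wells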
cells = type: functional
Streptococcus = assay: Group A Streptococcus viability loss, dose response, counter-screen for streptokinase expression inhibitor project, luminescence, BacTiterGlo (AID 1915); type: functional, organism-based;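 note: potency for reduction of bacterial viability or growth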
[9] = test system: Streptococcus sp. 'group A'; assay: growth inhibition of control SK(-) GAS strain, dose response, counter-screen for streptokinase expression inhibitor project, luminescence, kanamycin, BacTiterGlo, confirmation (AID 1900); type: functional, organism-based
[10] = target: T4, Heat shock factor protein 1; assay: inhibition of MG132-induced HSE-luciferase signal, confirmation, cell-based, NIH3T3, luminescence, dose retest (AID 2382); type: functional;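 note: NIH3T3 fibroblasts with HSF1-driven luciferase reporter stressed by proteasome inhibitor MG132; luminescence from HSF1-driven luciferase expression after 8 hours of MG132 stress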
[11] = HEp-2 cell cytotoxicity, dose response, cytotoxicity control for RSV inhibitor project, HTS (AID 2410); type: functional; details: human respiratory syncytial virus
[12] = Luminescence Cell-Based Dose Retest to Confirm Inhibitors of Cancer Stem Cells. [Related pubchem assays (depositor defined):AID2717, AID2721]; type: functional; details: Homo sapiens

O=C1/C(=C/c2ccccc2F)SC(=S)N1CCC(=O)N1CCCCC1CCO (stereo not given)
CC50 (Vero): 25 µM (active)

CCOC(=O)C1CCN(c2cc3c(cc2NC(=O)c2ccc(OC)c(OC)c2)n(C)c(=O)n3C)CC1
IC50 (H9c2): 26.8 µM (active)

Nc1cc(CN2C(=O)c3ccccc3C2=O)cc(Cl)c1O
IC50 (Large T antigen): 8.42 µM (active)

CCN(CC)C(=O)CC(c1ccc(N(C)C)cc1)c1c(OC)cc(OC)c2ccc(=O)oc12 (stereo not given)
AC50 [1]: 3.89 µM (active)

O=C(Nc1ccc(Cl)c(Cl)c1)Oc1ccc(NC(=O)c2ccco2)cc1
IC50 (Large T antigen): > 100 µM (active)

COc1ccc(NCCc2ccccn2)cc1
IC50 (Large T antigen): 19.3 µM (active)

CNC(C)Cc1ccccc1Sc1ccc(O)cc1 (stereo not given)
AC50 [1]: 3.15 µM (active)
AC50 (Cytochrome P450 2C9): 28.2 µM (inconclusive)
IC50 (Large T antigen): 94.4 µM (active)

CC(=O)Nc1ccc(SCCN2CC[C@@H](C(C)(C)C)CCC2=O)cc1
AC50 [1]: 0.25 µM (active)
IC50 [2]: > 66 µM (inactive)
IC50 [3]: > 66 µM (inactive)

CCC1(C)Cc2c(sc3nc(NN)n(C)c(=O)c23)CO1 (stereo not given)
IC50 (H9c2): > 79 µM (inactive)

CCOC(=O)C1CCN(Cc2ccc(-c3ccccc3)cc2)CC1
IC50 [4]: 151 µM (active)

Cc1ccc(S(=O)(=O)N(C)C)cc1NC(=O)CSc1ncc(C(F)(F)F)cc1Cl
EC50 [5]: 88.7 µM (active)
EC50 [6]: 647 µM (active)

CCC(C)[C@H]1CNCCN1CCc1cc(C(F)(F)F)cc(C(F)(F)F)c1 (stereo not given in full)
IC50 [7]: > 20 µM (inactive)

CCC1(C)N=C(N)Nc2nc3cc(C)c(C)cc3n21 (stereo not given)
AC50 [1]: 4.1 µM (active)
EC50 [8]: > 260 µM (inactive)

CCN(CC)S(=O)(=O)c1ccc(C)c(NC(=O)CN2CCN(C)CC2)c1
IC50 [4]: 118 µM (active)

CCC(/C=C1\Sc2ccc(OC)cc2N1CCCS(=O)(=O)[O-])=C\c1sc2ccc(OC)cc2[n+]1CC
AC50 [1]: 8.75 µM (active)
AC50 (INS1): 3.3 µM (active)

Nc1ccc2[nH]c(-c3cccs3)nc2c1
IC50 (H9c2): 15.5 µM (active)
IC50 (Large T antigen): 11.9 µM (active)

O=C1c2ccccc2C(=O)C12OC2c1ccc(Cl)cc1Cl (stereo not given)
EC50 [5]: 29.6 µM (active)
EC50 [6]: 20.3 µM (active)

O=C(/C=C/NNC(=O)c1ccccc1)c1ccc(Br)cc1
IC50 (H9c2): 12.4 µM (active)
EC50 [8]: 39.1 µM (active)

COc1ccc(C(=O)COC(=O)c2ccc(NC(=O)c3ccccc3)cc2)cc1
EC50 [5]: 41.1 µM (active)
AC50 (Cytochrome P450 2C9): 1.41 µM (inconclusive)
EC50 [6]: 49.9 µM (active)

CCC(=O)Nc1ccc(SC#N)cc1C
AC50 [1]: 0.497 µM (active)
IC50 [2]: > 66 µM (inactive)
IC50 [3]: > 66 µM (inactive)

O=C(c1ccco1)N1CCN(Cc2cccc([N+](=O)[O-])c2)CC1
IC50 [4]: 127 µM (active)

COc1ccc(OC(=O)COc2cc(C)ccc2C)cc1
IC50 [4]: 37.7 µM (active)

O=C(COC(=O)Cc1nnc(O)c2ccccc12)Nc1ncc(Cl)cc1Cl
IC50 (H9c2): 15.4 µM (active)

COC(=O)C1=C(C)N(CCc2ccc(OC)cc2)C(=O)C1
IC50 (H9c2): > 79 µM (inactive)

Cc1ccc(Nc2c(N)c(=O)oc3ccccc23)cc1
EC50 [8]: > 260 µM (inactive)
EC50 [5]: 13.6 µM (active)
EC50 [6]: 12.3 µM (active)

CCCc1cc(C(=O)Nc2ccccc2SC)no1
IC50 (cells): 10.5 µM (active)

COc1cccc(COC(=O)c2sc3nc4n(c(=O)c3c2C)CCC4)c1OC
EC50 (Streptococcus): 8.48 µM (active)
IC50 (cells): 4.36 µM (active)
EC50 [9]: 1.6 µM (active)

CCCn1c(SC(C(=O)Nc2cccc(OC)c2)c2ccccc2)nc2ccccc2c1=O (stereo not given)
IC50 (H9c2): > 79 µM (inactive)

CCOC(=O)N1CCN(S(=O)(=O)c2ccc(C(=O)Nc3nc4c(s3)CC(C)CC4)cc2)CC1 (stereo not given)
EC50 [5]: 1.25 µM (active)
EC50 [6]: 1.7 µM (active)

Cc1ccccc1C1c2[nH]c3ccccc3c2C[C@H]2C(=O)N(c3ccccc3C(=O)NCCCN3CCOCC3)C(=O)N12 (stereo not given in full)
IC50 (H9c2): 15.3 µM (active)

Cc1cc(C(=O)Nc2nnc(-c3ccccc3)s2)no1
AC50 [1]: 18.9 µM (active)

CCN1CCN(CCOc2ccc(Br)cc2C)CC1
IC50 [4]: 73.2 µM (active)

O=C(Oc1ccc2c(-c3ccccc3)cc(=O)oc2c1)C1CCCCC1
IC50 (H9c2): 34.3 µM (inactive)

COCCN(Cc1nc(O)c2ccccc2n1)C(=O)COc1ccccc1-c1ccccc1
CC50 (Vero): > 25 µM (active)

COC(=O)c1ccc(N)c(NC=C2C(=O)CC(C)(C)CC2=O)c1
IC50 (H9c2): 6.51 µM (active)

CCCC(=O)Nc1nc2ccc(NC(=O)c3ccc(Br)o3)cc2s1
IC50 (H9c2): > 79 µM (inactive)

CN(C)c1ccc(NC(=O)CC2NCCNC2=O)cc1 (stereo not given)
IC50 (Large T antigen): 10.1 µM (active)

Nc1nc2ccc(-c3nc4ccccc4o3)cc2s1
AC50 [1]: 2.44 µM (active)

CC(=O)Oc1c(-c2ccco2)oc2ccccc2c1=O
IC50 (cells): 23.2 µM (active)

Nc1nc(-c2ccco2)cs1
IC50 (Large T antigen): 79.2 µM (active)

CCCCC(=O)Nc1ccc2c3c(cccc13)C(=O)N2CC
IC50 [7]: > 20 µM (inactive)

CCn1c(S)nnc1-c1ccc2[nH]c(C)c(C)c2c1
AC50 [1]: 2.49 µM (active)
EC50 [10]: > 195 µM (not active)

CC(C)C(=O)Nc1ccc(O)c(-c2csc(N)n2)c1
IC50 (Large T antigen): 46.3 µM (active)

O=P1(c2ccccc2)Nc2ccccc2N1c1ccccc1 (stereo not given)
IC50 [4]: 28.8 µM (active)

O=C(Nc1ccncc1)C1CCN(S(=O)(=O)c2cccc(C(F)(F)F)c2)CC1
IC50 [7]: > 20 µM (inactive)

COc1ccccc1NS(=O)(=O)c1ccc(C)c(C(=O)N2CCN(c3ccc(O)cc3)CC2)c1
IC50 [4]: 24.2 µM (active)
AC50 [1]: 0.022 µM (active)

COc1ccc(NC(=O)N(C)C[C@H]2Oc3c(NC(=O)Nc4ccc(C(F)(F)F)cc4)cccc3C(=O)N([C@H](C)CO)C[C@@H]2C)cc1
IC50 (H9c2): > 79 µM (inactive)

CC(=O)Nc1ccc(NC(=O)C(C)OC(=O)COc2ccc(Nc3ccccc3)cc2)cc1 (stereo not given)
IC50 [4]: 111 µM (active)

O=C(NCc1nnc(O)c2ccccc12)C1CC(=O)N(c2ccccc2)C1 (stereo not given)
IC50 (H9c2): > 79 µM (inactive)

CCOc1cc2c(cc1O)C(=NOC)CC1C2CCC2(C)C(O)CCC12 (stereo not given)
CC50 (Vero): 5.94 µM (active)

COc1ccc(S(=O)(=O)N/N=C(/C)c2ccncc2)c(OC)c1
AC50 [1]: 0.832 µM (active)

CCc1ccc(/C=N/NC(=O)Cc2cccn2C)cc1
AC50 [1]: 13.4 µM (active)

O=C1CCCC2=C1C(c1ccc(Cl)cc1)n1c(s/c(=C\c3ccc4ccncc4c3)c1=O)=N2 (stereo not given)
CC50 [11]: 31.8 µM (active)
EC50 [8]: 146 µM (active)
CC50 (Vero): > 25 µM (active)

CN(C)/N=C/c1ccc(N2CCOCC2)cc1
IC50 [4]: 51.2 µM (active)

Cc1cc2nc(NCCCO)n(CC(=O)c3cc(C(C)(C)C)c(O)c(C(C)(C)C)c3)c2cc1C
IC50 [7]: > 20 µM (inactive)
AC50 (INS1): 8.03 µM (active)
AC50 [12]: 3.14 µM (active)
